Assay results taken from patent publication US20250135071A1, “USE OF POLYPEPTIDE IN PROMOTION OF CARTILAGE REGENERATION OR REPAIR” (HANGZHOU HUIBO SCIENCE AND TECHNOLOGY CO., LTD, priority 2021, published 2025).

Assays:
[1] = tested on: rabbit temporomandibular joint condylar osteochondral defect (3 mm*3 mm); assay: Macroscopic (ICRS) evaluation of repair of rabbit condylar osteochondral defect; format: in vivo, New Zealand white rabbits; details: overall conclusion, 1 to 4 weeks
Source text: 54 adult male New Zealand white rabbits (Zhejiang Chinese Medical University, IACUC-20180625-04) were randomized into 3 groups, with 18 rabbits in each group. The 54 rabbits were operated at right condyle, while the left condyle remained intact.
They were divided into 3 groups, of which group 1 was a control group without any treatment in the defect region; group 2 was a Gel-MA group implanted with Gel-MA hydrogel in the defect region; and group 3 was a Hst1/Gel-MA group implanted with HST1 functionalized Gel-MA in the defect region (provided in Example 1). […]
At 1, 2 and 4 weeks after operation, 6 animals in each group were randomly selected for euthanasia. The right temporomandibular joint and surrounding tissues thereof were taken out, and the gross specimens were evaluated by macroscopic scoring, and statistically analyzed.
The macroscopic scoring evaluation of the gross specimens adopted a macroscopic scoring system of the International Cartilage Repair Society (ICRS), and the gross appearance of the defect site was photographed and subjected to blind evaluation by 3 independent graders. The scoring system evaluated the cartilage repair in the defect region from four aspects: the degree of repair, the integration of a boundary area, a macroscopic appearance and the overall repair evaluation. […]

collagen fibers = assay: Masson trichrome staining, collagen fiber area in defect region; format: in vivo, New Zealand white rabbits; details: 2 and 4 weeks; group 3 versus groups 2 and 1; P<0.05
Method: (§1) Histological examination steps were as follows: in an environment of 4° C., the specimens used for histological analysis were fixed in 10% neutral formalin (Sig-ma-Aldrich, USA) for 24 hours, and decalcified with a 10% ethylenediaminetetraacetic acid (EDTA) buffer solution (Sigma-Aldrich, USA) for 28 days. The sample was embedded in paraffin wax (Sigma-Aldrich, USA), cut into 4 μm thick sagittal sections, and subjected to staining with hemotoxylin and cosin, Masson trichrome and Alcian Blue (Sigma Aldrich, USA). The sections were detected immunohistochemically for the contents of the type II collagen and Aggrecan. […] These sections were scored blindly by 3 experienced pathologists with an improved O'Driscoll scoring system (MODS).
(§2) The steps of histological morphology analysis were as follows: in all the sample sections, the original defect region was a 3*3 mm square. […] The percentages of areas of the new subchondral bone, the cartilage, the collagen fiber and the glycosaminoglycan (GAG) in the total area of the defect region was detected with image analysis software (image pro plus 6.0). Their respective contents were expressed as integrated optical density (IOD) of the type II collagen and Aggrecan measured by Image pro plus 6.0. […]

type II collagen = assay: Immunohistochemistry of type II collagen in repaired tissue; format: in vivo, New Zealand white rabbits
Method: as §1, §2

glycosaminoglycan (GAG) = assay: Alcian Blue staining, glycosaminoglycan (GAG) area in defect region; format: in vivo, New Zealand white rabbits; details: 2 and 4 weeks; group 3 versus groups 2 and 1; P<0.05
Method: as §1, §2

[2] = tested on: rabbit temporomandibular joint condylar osteochondral defect (3 mm*3 mm); assay: Histological evaluation (H&E, histomorphometry, MODS score) of repaired osteochondral defect; format: in vivo, New Zealand white rabbits; details: group 3
Method: In this example, 3 groups of rabbits provided in Example 2 were used, and at 1, 2 and 4 weeks after operation, 6 animals in each group were randomly selected for euthanasia. The right temporomandibular joint and surrounding tissues thereof were taken out, and the gross specimens were analyzed for tissue morphology and statistically analyzed.
Histological examination steps were as follows: in an environment of 4° C., the specimens used for histological analysis were fixed in 10% neutral formalin (Sig-ma-Aldrich, USA) for 24 hours, and decalcified with a 10% ethylenediaminetetraacetic acid (EDTA) buffer solution (Sigma-Aldrich, USA) for 28 days. The sample was embedded in paraffin wax (Sigma-Aldrich, USA), cut into 4 μm thick sagittal sections, and subjected to staining with hemotoxylin and cosin, Masson trichrome and Alcian Blue (Sigma Aldrich, USA). The sections were detected immunohistochemically for the contents of the type II collagen and Aggrecan. All the sections were observed and photographed by utilizing an optical microscope (CX51; Olympus) and a digital charge coupled device camera (TrueChrome Metrics; Tucsen Photonics). These sections were scored blindly by 3 experienced pathologists with an improved O'Driscoll scoring system (MODS).
The steps of histological morphology analysis were as follows: in all the sample sections, the original defect region was a 3*3 mm square. The top of the square was flush with the cartilage surfaces on both sides. The percentages of areas of the new subchondral bone, the cartilage, the collagen fiber and the glycosaminoglycan (GAG) in the total area of the defect region was detected with image analysis software (image pro plus 6.0). Their respective contents were expressed as integrated optical density (IOD) of the type II collagen and Aggrecan measured by Image pro plus 6.0.
At 4 weeks after operation, the tissues were retrieved for histological treatment and sectioning. According to the implants in the defect region, they were divided into a group 1 as the control group (A in FIG. 3, A1-A2), a group 2 as the Gel-MA group (B in FIG. 3, B1-B2) and a group 3 as the Hst1/Gel-MA group (C in FIG. 3, C1-C2). The dotted square area in FIG. 3 was the original defect region (3 mm*3 mm). A-C scale=500 μm. […]
The quantitative analysis of areas of new cartilage and subchondral bones and the MODS score results of repairing osteochondral defects at 1, 2 and 4 weeks after operation were shown in FIG. 4. In FIG. 4, A was the quantitative analysis of the area of the new cartilage, B was the quantitative analysis of the area of the subchondral bone, and C, D and E were the MODS score results of repairing osteochondral defects at 1, 2 and 4 weeks after operation, respectively. […]

Aggrecan = assay: Immunohistochemistry of Aggrecan in repaired tissue; format: in vivo, New Zealand white rabbits
Method: as §1, §2

[3] = tested on: defect region of a critical size in rabbit condyle; assay: Effect of Hst1 dose in Gel-MA on cartilage repair (H&E histology); format: in vivo; details: 2 weeks
Source text: In order to determine the optimal concentration of Hst1 for promoting osteochondral repair, Gel-M and 3 different doses of Hst1 at (A, A1) 50, (B, B1) 500, and (C, C1) 1,000 (μg)/sample were implanted in the defect region of a critical size in rabbit condyle, and the tissues were taken out at 2 weeks after operation, subjected to histological treatment and sectioned to explore the cartilage repair effects of the 3 different concentrations of Hst1.
The 3 different concentrations of Hst1 were set as follows: group A: 50 μg of Hst1+21.1 μl of a Gel-MA prepolymer solution; group B: 500 μg of Hst1+21.1 μl of a Gel-MA prepolymer solution; and group C: 1,000 μg of Hst1+21.1 μl of a Gel-MA prepolymer solution (the model volume of condylar defect was 21.1 μl/sample).
The optical photomicrographs of H&E stained tissue sections of rabbit condyle for comparison were shown in FIG. 8, wherein the dotted square area was the original defect region (3 mm*3 mm), the A-C scale was 500 μm; and the A1-C1 scale=50 μm. […] Therefore, 500 μg of Hst1/sample (500 μg of Hst1+21.1 μl of Gel-MA) was selected as the preferred concentration.

[4] = 4 weeks after operation, group 3
[5] = 4 weeks, group 3, quantitative analysis (IOD)

Histatin-1 polypeptide (DSHEKRHHGYRRKFHEKHHSHREFPFYGDYGSNYLYDN; linear Hst1)
effect on promoting the repair of cartilage injury (macroscopic) [1]: very significant effect on promoting the repair of cartilage injury | area percentages of the collagen fibers in the new cartilage and the subchondral bone in the total area of the defect region (collagen fibers): significantly higher than those in the groups 2 and 1 | expression of the type II collagen in the new cartilage tissue (type II collagen; [4]): close to those in the normal cartilage tissue | expression of the type II collagen compared with the groups 2 and 1 (type II collagen; [5]): more significant | area percentages of glycosaminoglycan (GAG) in the new cartilage and the subchondral bone in the total area of the defect region (glycosaminoglycan (GAG)): significantly higher than those in the groups 2 and 1 | histological observation of defect region ([2]; 1 week after operation): a new tissue was observed in the pores of the undegraded scaffold | histological observation of defect region ([2]; 2 weeks after operation): new cartilage and bone tissues gradually grew, infiltrated and replaced the scaffold | histological observation of defect region ([2]; 4 weeks after operation): the new cartilage proliferated and migrated to the center site of the defect | new blood vessels at junction between subchondral bone and functionalized hydrogel ([2]; 4 weeks after operation): formation of new blood vessels could be detected | expression of Aggrecan in the new cartilage tissue (Aggrecan; [4]): close to those in the normal cartilage tissue | expression of Aggrecan compared with the groups 2 and 1 (Aggrecan; [5]): more significant | histological repair of defect region ([3]; group A: 50 μg of Hst1+21.1 μl Gel-MA prepolymer solution): no new tissue was generated, and only a small amount of cell infiltration was detected | histological repair of defect region ([3]; group B: 500 μg of Hst1+21.1 μl Gel-MA prepolymer solution): several new cartilage islands could be obviously observed | histological repair of defect region ([3]; group C: 1,000 μg of Hst1+21.1 μl Gel-MA prepolymer solution): a large number of new subchondral bones were generated, but almost no new cartilage tissue was detected
